Measurements as given in ChEMBL document CHEMBL4196094, “Structure-based design of bacterial transglycosylase inhibitors incorporating biphenyl, amine linker and 2-alkoxy-3-phosphorylpropanoate moieties” (Eur J Med Chem, 2018).
In brackets after ≈: the same amount, converted by molar mass.

What was measured:
[1] = molecular target: T1, Penicillin-binding protein 1B (Acinetobacter baumannii) (UniProt G1C7A4); test: Inhibition of Acinetobacter baumannii PBP1b transglycosylase activity at 500 uM using NBD-lipid 2 as substrate after 2 hrs by muramidase enzyme coupled HPLC analysis relative to control
T1 sequence (whole entry): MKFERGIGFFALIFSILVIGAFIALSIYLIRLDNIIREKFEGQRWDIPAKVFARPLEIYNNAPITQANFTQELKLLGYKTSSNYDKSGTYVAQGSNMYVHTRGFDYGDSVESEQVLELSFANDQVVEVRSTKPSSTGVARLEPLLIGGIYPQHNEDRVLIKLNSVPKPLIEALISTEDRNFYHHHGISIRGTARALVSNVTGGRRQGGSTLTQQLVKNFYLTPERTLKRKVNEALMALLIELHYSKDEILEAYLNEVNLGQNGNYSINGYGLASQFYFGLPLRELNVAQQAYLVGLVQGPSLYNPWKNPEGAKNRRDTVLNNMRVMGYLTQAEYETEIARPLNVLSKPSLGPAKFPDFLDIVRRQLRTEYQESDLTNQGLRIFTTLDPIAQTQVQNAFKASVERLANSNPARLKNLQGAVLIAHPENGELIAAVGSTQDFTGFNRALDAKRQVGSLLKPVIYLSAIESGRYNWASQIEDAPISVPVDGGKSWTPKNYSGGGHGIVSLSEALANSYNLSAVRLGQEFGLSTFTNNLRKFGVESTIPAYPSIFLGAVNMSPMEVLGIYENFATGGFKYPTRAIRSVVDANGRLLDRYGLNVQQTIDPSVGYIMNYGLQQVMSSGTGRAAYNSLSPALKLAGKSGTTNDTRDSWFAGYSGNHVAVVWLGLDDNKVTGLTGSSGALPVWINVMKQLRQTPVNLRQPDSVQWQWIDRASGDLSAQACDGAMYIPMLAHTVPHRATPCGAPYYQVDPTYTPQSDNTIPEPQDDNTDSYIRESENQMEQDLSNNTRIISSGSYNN

[2] = molecular target: T2, Penicillin-binding protein 1B (Acinetobacter baumannii, UniProt G1C7A4); test: Inhibition of Acinetobacter baumannii PBP1b transglycosylase activity using NBD-lipid 2 as substrate after 2 hrs by muramidase enzyme coupled HPLC analysis
T2 sequence (G1C7A4 whole entry): T1 sequence (whole entry)

Staphylococcus aureus = test: Antibacterial activity against Staphylococcus aureus after 16 to 18 hrs; type: functional
[3] = molecular target: T1, Penicillin-binding protein 1B (Acinetobacter baumannii); test: Inhibition of Acinetobacter baumannii PBP1b transglycosylase activity at 200 uM using NBD-lipid 2 as substrate after 2 hrs by muramidase enzyme coupled HPLC analysis relative to control
[4] = molecular target: T1, Penicillin-binding protein 1B (Acinetobacter baumannii); test: Inhibition of Acinetobacter baumannii PBP1b transglycosylase activity at 1 uM using NBD-lipid 2 as substrate after 2 hrs by muramidase enzyme coupled HPLC analysis relative to control

SMILES	inhibition [1]	MIC95 (Staphylococcus aureus)	further results
CCCCCCCCCCCCn1cc(CO[C@H](CP(=O)(O)OCCCNC(=O)c2ccc(-c3ccccc3)cc2)C(=O)O)nn1	< 5%		
CCCCCCCCCCCCn1cc(CO[C@H](CP(=O)(O)OCCCNCc2ccc(-c3ccccc3)cc2)C(=O)O)nn1	13%		
CCCCCCCCCCCCn1cc(CO[C@H](CP(=O)(O)OCCCN(C)Cc2ccc(-c3ccccc3)cc2)C(=O)OCC)nn1		6.3 µM (≈ 4.31 µg/mL)	IC50 [2]: 153 µM; inhibition [3]: 99%
CCCCCCCCCCCCn1cc(CO[C@H](CP(=O)(O)OCCCNC(=O)c2ccc(-c3ccccc3)cc2)C(=O)OCC)nn1	< 5%		
CCCCCCCCCCCCn1cc(CO[C@H](CP(=O)(O)OCCCN(Cc2ccc(-c3ccccc3)cc2)C(=O)OC(C)(C)C)C(=O)OCC)nn1	33%		
CCCCCCCCCCCCn1cc(CO[C@H](CP(=O)(O)OCCCNCc2ccc(-c3ccccc3)cc2)C(=O)OCC)nn1	90%	6.3 µM (≈ 4.23 µg/mL)	IC50 [2]: 232 µM; inhibition [3]: 34%
CCCCCCCCCCCCn1cc(CO[C@H](CP(=O)(O)OCCCN(Cc2ccc(-c3ccccc3)cc2)C(=O)OCC(Cl)(Cl)Cl)C(=O)OCC)nn1	70%		
CCCCCCCCCCCCn1cc(CO[C@H](CP(=O)(O)OCCCN(Cc2ccc(-c3ccccc3)cc2)Cc2ccc(-c3ccccc3)cc2)C(=O)OCC)nn1		> 400 µM	IC50 [2]: 87 µM; inhibition [3]: 99%
CC1(C)S[C@@H]2[C@H](NC(=O)[C@H](N)c3ccccc3)C(=O)N2[C@H]1C(=O)O [AMPICILLIN]		1.4 µM (≈ 0.489 µg/mL)	
CCCCCCCCCCCCn1cc(CO[C@H](CP(=O)(O)OCCCNCc2ccc3ccccc3c2)C(=O)OCC)nn1	55%	6.3 µM (≈ 4.06 µg/mL)	
CCCCCCCCCCCCn1cc(CO[C@H](CP(=O)(O)OCCNCc2ccc(-c3ccccc3)cc2)C(=O)OCC)nn1		6.3 µM (≈ 4.14 µg/mL)	IC50 [2]: 157 µM; inhibition [3]: 99%
C=C(C/C=C(\C)CCC=C(C)C)CCC(C)(C)/C=C/CC/C(C)=C\CO[C@H](COP(=O)(O)O[C@H]1O[C@H](C(N)=O)[C@@](C)(O)[C@H](OC(N)=O)[C@H]1O[C@@H]1O[C@H](CO[C@@H]2O[C@H](CO)[C@@H](O)[C@H](O)[C@H]2O)[C@@H](O[C@@H]2O[C@H](C)[C@@H](O[C@@H]3O[C@H](C(=O)NC4=C(O)CCC4=O)[C@H](O)[C@H](O)[C@H]3O)[C@H](O)[C@H]2NC(C)=O)[C@H](O)[C@H]1NC(C)=O)C(=O)O			inhibition [4]: 100%
CCCCCCCCCCCCn1cc(CO[C@H](CP(=O)(O)OCCCN(Cc2ccc(-c3ccccc3)cc2)C(=O)OCC(Cl)(Cl)Cl)C(=O)O)nn1	< 5%		
CCCCCCCCCCCCn1cc(CO[C@H](CP(=O)(O)OCCCNCc2ccc3ccccc3c2)C(=O)O)nn1	48%		
